According to patent publication US10844058B2, “Valbenazine salts and polymorphs thereof” (Neurocrine Biosciences, Inc., priority 2015, dated 2020):
Where two headings read alike, the source gives them in different places.

Tests used:
Format in all cases: physicochemical
[1] = Solubility of Formula I Form I in solvents, gravimetric analysis of mother liquors (Example 1); settings: organic solvent or mixture, thermodynamic from solid
Description: The solubility was calculated by gravimetric analysis after evaporation of the mother liquors collected.

[2] = Solubility of Form I in aqueous media by HPLC (Example 4); settings: thermodynamic from solid, 22° C.
Description: (§1) The vials were shaken. After 1 hr, a sample (˜0.5 ml) was removed via syringe, and filtered through a syringe filter (0.2 micron) into a second vial. 200 μl of each solution was then transferred into an HPLC vial and made up to 1 ml by adding 800 μl of diluent. These samples were analyzed directly by HPLC, and the response was outside the linearity range. Therefore a second dilution was performed, taking 0.1 ml of each sample and making up to 2 ml with diluent. The samples were re-analyzed by HPLC. Then after shaking the suspensions for 18 hours in total, a second sample was taken as above. All samples were then diluted and analyzed by HPLC, as above. The temperature was noted (22° C.), and no gelling was observed.

[3] = Solubility of Form I in organic solvents by HPLC (Example 4); settings: 22 °C, thermodynamic from solid
Description: as §1
The above procedure was repeated but using 8 different organic solvents in place of the aqueous media (analysis only after 18 hrs). Solvents used were acetonitrile, diethyl ether, ethanol, ethyl acetate, isopropanol, methanol, heptane and THF. All solvents gave suspensions at 100 mg/ml, except methanol which dissolved at 100 mg in 0.3 ml. […] These experiments were sampled once after 18 hours of slurrying.

[4] = Thermodynamic aqueous solubility; settings: water, 25 °C, water, thermodynamic from solid, water, 25° C., 24 hours; at the pH of the next column; read-out: Aqueous solubility mg/mL free form
Description: The suspension was equilibrated at 25° C. for 24 hours then the pH was measured. The suspension was then filtered through a glass fibre C filter. […] Different volumes of the standard, diluted and undiluted sample solutions were injected.

[5] = Gravimetric vapour sorption (GVS)
Description: The Gravimetric sorption isotherms were obtained using a Hiden IGASorp moisture sorption analyser, controlled by CFRSorp software. The sample temperature was maintained at 25° C. by a Huber re-circulating water bath. The humidity was controlled by mixing streams of dry and wet nitrogen, with a total flow rate of 250 ml/min. The relative humidity (RH) was measured by a calibrated Vaisala RH probe (dynamic range of 0-95% RH), located near the sample. The weight change, (mass relaxation) of the sample as a function of % RH was constantly monitored by the microbalance (accuracy 0.001 mg). Typically 10-20 mg of sample was placed in a tared mesh stainless steel basket at room temperature. The sample was loaded and unloaded at 40% RH and 25° C. (typical room conditions). The standard isotherm was performed at 25° C. at 10% RH intervals over a 0-90% RH range.

[6] = Stability to humidity on storage (form by XRPD)
[7] = Long-term and accelerated stability studies of Form I (Example 6)
Description: The storage conditions include the long-term storage condition of 25±2° C./60±5% RH, the intermediate storage condition of 30±2° C./65±5% RH, and the accelerated storage condition of 40±±2° C./75±±5% RH.

[8] = aqueous media, aqueous buffer, Aqueous pH 6.8
[9] = aqueous media, simulated gastric fluid, Aqueous pH 1.2
[10] = aqueous medium, aqueous buffer, Aqueous pH 4
[11] = aqueous medium, aqueous buffer, Aqueous pH 5

With `COc1cc2c(cc1OC)[C@H]1C[C@@H](OC(=O)[C@@H](N)C(C)C)[C@H](CC(C)C)CN1CC2.Cc1ccc(S(=O)(=O)O)cc1.Cc1ccc(S(=O)(=O)O)cc1` [Form I, (S)-(2R,3R,11bR)-3-isobutyl-9,10-dimethoxy-2,3,4,6,7,11b-hexahydro-1H-pyrido[2,1-a]isoquinolin-2-yl 2-amino-3-methylbutanoate di(4-methylbenzenesulfonate)] as the compound, how does the solubility ([1]; 55 °C, MeOH (boiling point 65), 10° C. below reflux, read-out: Solubility at high temperature) read?
The solubility was greater than 250 mg/mL.

And the solubility ([1]; 56 °C, THF (boiling point 66), 10° C. below reflux, read-out: Solubility at high temperature)?
Its solubility is 6 mg/mL.

And the solubility ([1]; 67 °C, Ethyl Acetate (boiling point 77), 10° C. below reflux, read-out: Solubility at high temperature)?
Its solubility is 2 mg/mL.

What about the solubility ([1]; 68 °C, EtOH (boiling point 78), 10° C. below reflux, read-out: Solubility at high temperature) of the same compound?
Its solubility is 212 mg/mL.

And the solubility ([1]; 70 °C, MEK (boiling point 80), 10° C. below reflux, read-out: Solubility at high temperature)?
The solubility was 4 mg/mL.

And the solubility ([1]; 71 °C, Acetonitrile (boiling point 81), 10° C. below reflux, read-out: Solubility at high temperature)?
The solubility was 48 mg/mL.

What about the solubility ([1]; 79 °C, IPA (boiling point 89), 10° C. below reflux, read-out: Solubility at high temperature) of the same compound?
The solubility was 22 mg/mL.

What about the solubility ([1]; 79 °C, Isopropyl Acetate (boiling point 89), 10° C. below reflux, read-out: Solubility at high temperature) of the same compound?
Its solubility is 4 mg/mL.

And the solubility ([1]; 88 °C, 1-propanol (boiling point 98), 10° C. below reflux, read-out: Solubility at high temperature)?
Its solubility is 160 mg/mL.

And the solubility ([1]; 107 °C, MIBK (boiling point 117), 10° C. below reflux, read-out: Solubility at high temperature)?
Its solubility is 5 mg/mL.

What about the solubility ([1]; 1-propanol, 5° C., read-out: Solubility at 5° C. temperature) of the same compound?
Its solubility is 8 mg/mL.

What about the solubility ([1]; Acetone, 5° C., read-out: Solubility at 5° C. temperature) of the same compound?
The solubility was 5 mg/mL.

What about the solubility ([1]; Acetonitrile, 5° C., read-out: Solubility at 5° C. temperature) of the same compound?
Its solubility is 17 mg/mL.

What about the solubility ([1]; EtOH, 5° C., read-out: Solubility at 5° C. temperature) of the same compound?
Its solubility is 24 mg/mL.

And the solubility ([1]; Ethyl Acetate, 5° C., read-out: Solubility at 5° C. temperature)?
Its solubility is 1 mg/mL.

And the solubility ([1]; IPA, 5° C., read-out: Solubility at 5° C. temperature)?
The solubility was 5 mg/mL.

And the solubility ([1]; Isopropyl Acetate, 5° C., read-out: Solubility at 5° C. temperature)?
Its solubility is 4 mg/mL.

What about the solubility ([1]; MEK, 5° C., read-out: Solubility at 5° C. temperature) of the same compound?
The solubility was 3 mg/mL.

What about the solubility ([1]; MIBK, 5° C., read-out: Solubility at 5° C. temperature) of the same compound?
The solubility was 6 mg/mL.

What about the solubility ([1]; MeOH, 5° C., read-out: Solubility at 5° C. temperature) of the same compound?
The solubility was greater than 250 mg/mL.

What about the solubility ([1]; THF, 5° C., read-out: Solubility at 5° C. temperature) of the same compound?
The solubility was 4 mg/mL.

And the solubility at 1 h ([2]; aqueous media, aqueous buffer, Aqueous pH 3)?
Its solubility at 1 h is 28.4 mg/mL.

And the solubility at 1 h [2, 8]?
The solubility at 1 h was 34 mg/mL.

And the solubility at 18 h [2, 8]?
The solubility at 18 h was 35.4 mg/mL.

What about the solubility at 1 h [2, 9] of the same compound?
Its solubility at 1 h is 31.6 mg/mL.

And the solubility at 18 h [2, 9]?
Its solubility at 18 h is 33.2 mg/mL.

What about the solubility at 18 h ([2]; aqueous medium, aqueous buffer, Aqueous pH 3) of the same compound?
Its solubility at 18 h is 28 mg/mL.

What about the solubility at 1 h [2, 10] of the same compound?
The solubility at 1 h was 28.1 mg/mL.

What about the solubility at 18 h [2, 10] of the same compound?
The solubility at 18 h was 27.8 mg/mL.

And the solubility at 1 h [2, 11]?
The solubility at 1 h was 18.6 mg/mL.

And the solubility at 18 h [2, 11]?
The solubility at 18 h was 27.9 mg/mL.

And the solubility at 18 h ([3]; organic solvent or mixture, Acetonitrile)?
Its solubility at 18 h is 1.36 mg/mL.

And the solubility at 18 h ([3]; organic solvent or mixture, Diethyl ether)?
The solubility at 18 h was 0.01 mg/mL.

What about the solubility at 18 h ([3]; organic solvent or mixture, Ethanol) of the same compound?
Its solubility at 18 h is 35.5 mg/mL.

And the solubility at 18 h ([3]; organic solvent or mixture, Ethyl acetate)?
Its solubility at 18 h is 0.04 mg/mL.

What about the solubility at 18 h ([3]; organic solvent or mixture, Heptane) of the same compound?
The solubility at 18 h was 0.003 mg/mL.

What about the solubility at 18 h ([3]; organic solvent or mixture, Isopropanol) of the same compound?
The solubility at 18 h was 1.15 mg/mL.

What about the solubility at 18 h ([3]; organic solvent or mixture, Methanol) of the same compound?
Its solubility at 18 h is 481 mg/mL.

What about the solubility at 18 h ([3]; organic solvent or mixture, THF) of the same compound?
The solubility at 18 h was 0.05 mg/mL.

And the solubility at 18 h ([3]; Water)?
The solubility at 18 h was 28.2 mg/mL.

What about the solubility at 24 h [4] of the same compound?
Its solubility at 24 h is 15 mg/mL.

And the “Stability to humidity GVS uptake” value ([5]; 25° C.)?
Its value is 1.0%.

What about the GVS mass increase ([5]; relative humidity from about 0% to about 95%, di(4-methylbenzenesulfonate)) of the same compound?
Its GVS mass increase is “less than 1%”.

And the “Stability to humidity 25° C./92% RH” value ([6]; 25° C./92% RH)?
The value was “unchanged”.

What about the “Stability to humidity 40° C./75% RH” value ([6]; 40° C./75% RH) of the same compound?
Its value is “unchanged”.

And the Stability on storage ([7]; about 25° C. and about 60% relative humidity for about 24 months)?
Its Stability on storage is “stable”.

What about the Stability on storage ([7]; about 40° C. and about 75% relative humidity for about 6 months) of the same compound?
Its Stability on storage is “stable”.

What about the Stability on storage ([7]; accelerated storage condition 40° C./75% RH, 3 months) of the same compound?
Its Stability on storage is “chemical and physical stability”.

What about the Stability on storage ([7]; long-term storage condition 25° C./60% RH, up to 3 months) of the same compound?
Its Stability on storage is “chemical and physical stability”.
